≈ marks a conversion by molar mass, not a printed value. Like-named read-outs stand apart in the source and are kept apart here.

The text below walks through data of US11077120B2, “Prostaglandin receptor EP2 antagonists, derivatives, compositions, and uses related thereto” (Emory University, priority 2014, dated 2021).

Data set [1] has as its target T1, human DP1 receptors (Homo sapiens, UniProt Q13258).
T1 construct: expressed in transfected cells
T1 sequence (Q13258 1-359): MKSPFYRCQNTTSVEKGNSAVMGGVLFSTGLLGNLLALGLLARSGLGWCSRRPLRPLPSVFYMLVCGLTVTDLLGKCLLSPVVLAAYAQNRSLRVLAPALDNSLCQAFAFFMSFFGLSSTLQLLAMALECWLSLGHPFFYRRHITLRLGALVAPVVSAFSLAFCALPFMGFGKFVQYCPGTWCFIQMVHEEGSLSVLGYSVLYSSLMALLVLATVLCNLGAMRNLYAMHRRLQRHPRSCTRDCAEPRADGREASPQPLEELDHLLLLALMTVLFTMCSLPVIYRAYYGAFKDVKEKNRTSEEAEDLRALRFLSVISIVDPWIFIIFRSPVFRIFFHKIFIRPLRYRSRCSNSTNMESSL
Briefly: cell-based cAMP TR-FRET assay, DP1 (agonist BW245C). Conditions: for selectivity against DP1: EP2 over DP1; for Selective Index (DP1/EP2) / Kb: Table 2; for Kb: read-out: KB DP1. The procedure:
(§1) The synthesis was carried out starting from commercially available 2-methyl indole or 2-trifluoromethyl indoles (11a-c), which on treatment with bromoacetonitrile provided intermediates (12a-c), which then were subjected to lithium aluminum hydride to reduce cyanide to amines. […] Synthesized derivatives were tested by using a cAMP-derived TR-FRET assay, at single concentration (1 μM) to observe a rightward shift of PGE2 (an EP2 agonist) concentration response curve in a C6G cell line that overexpresses human EP2 receptors.
Intracellular cAMP was measured with a cell-based homogeneous time-resolved fluorescence resonance energy transfer (TR-FRET) method (Cisbio Bioassays). […] Endogenous cAMP produced by cells competes with labeled cAMP for binding to the cAMP antibody and thus reduces the FRET signal. Cells stably expressing human DP1, EP2, EP4, or IP receptors were seeded into 384-well plates in 30 μl complete medium (4,000 cells/well) and grown overnight. The medium was carefully withdrawn and 10 μl Hanks' Buffered Salt Solution (HBSS) (Hyclone) containing 20 μM rolipram was added into the wells to block phosphodiesterases. The cells were incubated at room temperature for 0.5-1 h and then treated with vehicle or test compound for 10 min before addition of increasing concentrations of appropriate agonist: BW245C for DP1, PGE2 for EP2 and EP4, or iloprost for IP. The cells were incubated at room temperature for 40 min, then lysed in 10 μl lysis buffer containing the FRET acceptor cAMP-d2 and 1 min later another 10 μl lysis buffer with anti-cAMP-Cryptate was added. […] The FRET signal was expressed as: F665/F590×10^4.

Data set [2] deals with T2, human EP2 receptors (Homo sapiens, UniProt P43116).
T2 construct: expressed in transfected cells
Briefly: cell-based cAMP TR-FRET assay, rightward shift of PGE2 concentration response curve (Schild KB), EP2. Conditions: for mechanism of antagonism of EP2: Schild regression analysis. As to the method:
KB value indicates the antagonist concentration required for a twofold rightward shift in the PGE2 dose-response curve. Thus, a lower KB value indicates a higher inhibitory potency.
as §1
A lower KB value indicates a higher inhibitory potency.
(§2) Intracellular cAMP was measured with a cell-based homogeneous time-resolved fluorescence resonance energy transfer (TR-FRET) method (Cisbio Bioassays). […] Endogenous cAMP produced by cells competes with labeled cAMP for binding to the cAMP antibody and thus reduces the FRET signal. Cells stably expressing human DP1, EP2, EP4, or IP receptors were seeded into 384-well plates in 30 μl complete medium (4,000 cells/well) and grown overnight. The medium was carefully withdrawn and 10 μl Hanks' Buffered Salt Solution (HBSS) (Hyclone) containing 20 μM rolipram was added into the wells to block phosphodiesterases. The cells were incubated at room temperature for 0.5-1 h and then treated with vehicle or test compound for 10 min before addition of increasing concentrations of appropriate agonist: BW245C for DP1, PGE2 for EP2 and EP4, or iloprost for IP. The cells were incubated at room temperature for 40 min, then lysed in 10 μl lysis buffer containing the FRET acceptor cAMP-d2 and 1 min later another 10 μl lysis buffer with anti-cAMP-Cryptate was added. After 60-90 min incubation at room temperature, the FRET signal was measured by an Envision 2103 Multilabel Plate Reader (PerkinElmer Life Sciences) with a laser excitation at 337 nm and dual emissions at 665 nm and 590 nm for d2 and Cryptate (50 s delay), respectively. The FRET signal was expressed as: F665/F590×10^4.

The subject of data set [3] is C6-glioma cells. Conditions: rat.
Protocol: (§4) CC50 are average one measurement run in triplicate.
(§5) Several of compounds were examined against EP4 and IP receptors at single concentration of 10 μM.
Data set [4] deals with T3, human IP receptors (Homo sapiens, UniProt P43119).
T3 construct: expressed in transfected cells
Put plainly: cell-based cAMP TR-FRET assay, IP (agonist iloprost). Conditions: for Selective Index (IP/EP2) / potency estimated from few doses: Table 2; for potency estimated from few doses: extrapolated Schild KB from single concentration of 10 μM. The procedure: (§3) These derivatives were selected for testing against EP4 and IP receptors. Cell lines were created that overexpress EP4 receptors, or IP receptors on C6-glioma cells. A cAMP-derived TR-FRET assay was developed using agonists PGE2 (for EP4) and iloprost (for IP), similar to EP2 assay.
as §2

Data set [5] concerns the target T4, human EP4 receptors (Homo sapiens, UniProt P35408).
T4 construct: expressed in transfected cells
Briefly: cell-based cAMP TR-FRET assay, EP4 (agonist PGE2). Conditions: for Selective Index EP4/EP2 / potency estimated from few doses: Table 2; for potency estimated from few doses: extrapolated Schild KB from single concentration of 10 μM. The procedure: as §3, §2

Data set [6] is described as follows: aqueous solubility by nephelometry. Conditions: for aqueous solubility (in words): PBS buffer (pH 7.4) with 1% DMSO, nephelometry.
The nature of data set [7]: in vitro. Conditions: rat.
Protocol: as §4, §5
The mark [8] stands for this setting: Table 2, average of 2-3 independent experiments in duplicate, read-out: KB EP2.
Where [9] appears, read: single concentration values, read-out: EP2 potency (Schild KB).
The mark [10] stands for this setting: Table 1, Schild KB from single antagonist concentration 1 μM, average of 2-3 measurements in duplicate, read-out: EP2 KB.
Where [11] appears, read: Table 3, PBS buffer (pH 7.4) with 1% DMSO by nephelometry.

T4 sequence (P35408 whole entry): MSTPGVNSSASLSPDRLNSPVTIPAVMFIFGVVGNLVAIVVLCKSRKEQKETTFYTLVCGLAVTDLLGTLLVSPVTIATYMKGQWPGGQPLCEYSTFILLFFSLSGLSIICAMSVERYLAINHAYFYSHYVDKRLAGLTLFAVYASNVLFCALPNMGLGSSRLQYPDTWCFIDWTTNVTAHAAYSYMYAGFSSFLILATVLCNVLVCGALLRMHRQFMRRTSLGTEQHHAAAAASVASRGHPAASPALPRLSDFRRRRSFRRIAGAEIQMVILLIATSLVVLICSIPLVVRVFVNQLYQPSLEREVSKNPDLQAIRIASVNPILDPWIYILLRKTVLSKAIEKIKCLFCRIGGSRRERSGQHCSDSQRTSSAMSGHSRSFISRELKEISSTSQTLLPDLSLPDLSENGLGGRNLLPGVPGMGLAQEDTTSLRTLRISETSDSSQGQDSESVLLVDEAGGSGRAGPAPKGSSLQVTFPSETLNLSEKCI
T3 sequence (P43119 whole entry): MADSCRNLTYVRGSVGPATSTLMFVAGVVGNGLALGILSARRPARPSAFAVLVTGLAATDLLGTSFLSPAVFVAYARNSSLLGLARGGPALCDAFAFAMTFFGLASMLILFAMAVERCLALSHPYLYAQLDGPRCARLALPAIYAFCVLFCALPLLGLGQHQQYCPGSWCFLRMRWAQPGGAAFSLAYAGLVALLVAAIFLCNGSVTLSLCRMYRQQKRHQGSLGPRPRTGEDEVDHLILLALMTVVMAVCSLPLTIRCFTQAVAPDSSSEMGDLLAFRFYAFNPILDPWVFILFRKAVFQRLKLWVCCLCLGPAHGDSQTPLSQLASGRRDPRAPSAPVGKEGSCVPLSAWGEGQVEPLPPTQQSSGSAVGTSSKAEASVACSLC
T2 sequence (P43116 whole entry): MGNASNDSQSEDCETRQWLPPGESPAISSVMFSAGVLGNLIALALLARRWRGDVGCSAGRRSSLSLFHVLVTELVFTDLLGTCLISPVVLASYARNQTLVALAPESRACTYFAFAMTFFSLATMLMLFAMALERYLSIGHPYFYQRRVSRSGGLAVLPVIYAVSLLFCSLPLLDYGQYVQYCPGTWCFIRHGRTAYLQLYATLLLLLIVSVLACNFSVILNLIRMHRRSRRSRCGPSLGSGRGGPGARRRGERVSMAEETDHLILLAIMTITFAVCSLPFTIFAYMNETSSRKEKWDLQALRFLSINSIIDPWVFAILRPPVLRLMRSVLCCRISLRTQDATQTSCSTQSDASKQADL

As to `CCN(CC)c1ccc(C(=O)NCCn2c(C)cc3ccccc32)cc1` [Compound 6f, 4-(Diethylamino)-N-(2-(2-methyl-1H-indol-1-yl)ethyl)benzamide], in data set [1], the “selectivity against DP1” value was above 1200 fold, the “Selective Index (DP1/EP2)” value is recorded as 1,220 and the Kb worked out at 3.19 µM. For the same compound, in data set [2], the “fold improved/higher EP2 potency in comparison to 6b” value (from here on “fold improved/higher EP2 potency”) was around 8 fold and the “mechanism of antagonism of EP2” value was “competitive”. Also, the Kb in data set [2] (setting [8]) turned out to be 2.7 nM. Further, the Kb in data set [2] (setting [9]) was around 10 nM. In addition, in data set [3], the CC50 turned out to be 320 µM and the “Therapeutic Index (CC50/EP2 KB)” value is recorded as 118,520. Also, the “selectivity against the IP receptor” value in data set [4] (EP2 over IP) is reported as around 3000 fold. Besides, in data set [4], the “Selective Index (IP/EP2)” value is given as 2,960 and the potency estimated from few doses was 8 µM. Also, in data set [5], the “Selective Index EP4/EP2” value is reported as 11,590 and the potency estimated from few doses is 31.3 µM.

Regarding `Cc1cc2ccccc2n1CCNC(=O)c1ccc(N2CCCC2)cc1` [Compound 7j, N-(2-(2-Methyl-1H-indol-1-yl)ethyl)-4-(pyrrolidin-1-yl)benzamide], in data set [1], the “selectivity against DP1” value is on record as 516 fold, the “Selective Index (DP1/EP2)” value was above 516 and the Kb is above 10 µM. The Kb in data set [2] (setting [8]) was found to be 24.7 nM. Moreover, in data set [3], the CC50 worked out at 337 µM and the “Therapeutic Index (CC50/EP2 KB)” value is reported as 16,120. Further, in data set [4], the “Selective Index (IP/EP2)” value is given as 570 and the potency estimated from few doses was 14.2 µM. Also, in data set [5], the “Selective Index EP4/EP2” value is given as 1,160 and the potency estimated from few doses was 28.7 µM.

In the case of `Cc1cc2ccccc2n1CCNC(=O)c1ccc(N2CCCCC2)cc1` [Compound 7k, N-(2-(2-Methyl-1H-indol-1-yl)ethyl)-4-(piperidin-1-yl)benzamide], in data set [1], the “Selective Index (DP1/EP2)” value turned out to be 273 and the Kb came out at 2.57 µM. In addition, in data set [2], the “fold improved/higher EP2 potency” value was “about 2.3 fold”. Besides, the Kb in data set [2] (setting [10]) was 9.4 nM. For the same compound, in data set [3], the CC50 worked out at 315 µM and the “Therapeutic Index (CC50/EP2 KB)” value is recorded as 33,510. Moreover, in data set [4], the “Selective Index (IP/EP2)” value was 360 and the potency estimated from few doses was 3.4 µM. In addition, in data set [5], the “Selective Index EP4/EP2” value is listed as 3,210 and the potency estimated from few doses was 30.2 µM.

`Cc1cc2ccccc2n1CCNC(=O)c1ccc(N2CCC(C(=O)O)CC2)cc1` [Compound 7n]: in data set [6], the “aqueous solubility (in words)” value is given as “high aqueous solubility”. Also, in data set [2] (setting [10]), the Kb was 89.7 nM.

As to `Cc1cc2ccccc2n1CCNC(=O)c1ccc(N2CCOCC2)cc1` [Compound 7p, N-(2-(2-Methyl-1H-indol-1-yl)ethyl)-4-morpholinobenzamide], in data set [1], the “Selective Index (DP1/EP2)” value is given as 533 and the Kb is 5.21 µM. Further, in data set [2], the “fold improved/higher EP2 potency” value was “about 2.3 fold” and the “mechanism of antagonism of EP2” value is listed as “competitive”. Moreover, the Kb in data set [2] (setting [10]) came to 9.6 nM. For the same compound, in data set [3], the CC50 worked out at 289 µM and the “Therapeutic Index (CC50/EP2 KB)” value is 30,100. In data set [4], the “Selective Index (IP/EP2)” value worked out at 206 and the potency estimated from few doses was 1.98 µM. Also, in data set [5], the “Selective Index EP4/EP2” value was 2,190 and the potency estimated from few doses is 21 µM.

Consider `Cc1cc2ccccc2n1CCNC(=O)c1ccc(N2CCOCC2)c(F)c1` [Compound 7t], for which the “Selective Index (DP1/EP2)” value in data set [1] stood at 85. The CC50 in data set [7] is above 500 µM. Moreover, in data set [3], the “Therapeutic Index (CC50/EP2 KB)” value is given as >19,450. In data set [4], the “Selective Index (IP/EP2)” value is listed as 217 and the potency estimated from few doses was 5.6 µM. The “selectivity over EP4” value in data set [5] (EP2 over EP4) is listed as around 600 fold. For the same compound, in data set [5], the “Selective Index EP4/EP2” value is recorded as 565 and the potency estimated from few doses is 14.5 µM.

Regarding `Cc1cc2ccccc2n1CCNC(=O)c1ccc(-c2nnn[nH]2)cc1` [Compound 7z], in data set [6], the “aqueous solubility (in words)” value is recorded as “high aqueous solubility”. In data set [7], this compound registered a CC50 above 300 µM. Moreover, the potency estimated from few doses in data set [4] and in data set [5] was above 10000 µM throughout.

Turning to `Cc1cc2ccccc2n1CCNC(=O)c1ccc2c(c1)n(C)c(=O)n2C` [Compound 8a, 1,3-Dimethyl-N-(2-(2-methyl-1H-indol-1-yl)ethyl)-2-oxo-2,3-dihydro-1H-benzo[d]imidazole-5-carboxamide], in data set [1], the “Selective Index (DP1/EP2)” value amounted to 300 and the Kb turned out to be 6.29 µM. In addition, in data set [2] (setting [10]), the Kb was 20.9 nM. Also, in data set [3], the CC50 stood at 154 µM, the “Therapeutic Index (CC50/EP2 KB)” value was 7,370 and the “concentration showing an effect on cell viability” value is above 100 µM. For the same compound, in data set [4], the “Selective Index (IP/EP2)” value came out at 1200 and the potency estimated from few doses is 25.2 µM. For the same compound, in data set [5], the “Selective Index EP4/EP2” value is 1730 and the potency estimated from few doses is 36.1 µM.

For the compound `CCN(CC)c1ccc(C(=O)NCCc2c(C)[nH]c3ccccc23)cc1` [Compound 9a, 4-(Diethylamino)-N-(2-(2-methyl-1H-indol-3-yl)ethyl)benzamide], in data set [1], the “Selective Index (DP1/EP2)” value was 1374. Besides, the Kb was 9.48 µM in data set [1], 6.9 nM in data set [2] (setting [10]) and around 10 nM in data set [2] (setting [9]). Also, the “mechanism of antagonism of EP2” value in data set [2] is given as “competitive”. This compound gave a CC50 in data set [7] above 500 µM. Also, in data set [3], the “Therapeutic Index (CC50/EP2 KB)” value is on record as >72,460. Moreover, the potency estimated from few doses in data set [4] is above 10000 µM; in data set [5] it was 48 µM. Moreover, the “Selective Index EP4/EP2” value in data set [5] was 6,945.

Consider `COc1cc(/C=C/C(=O)NCCn2c(CN3CCOCC3)cc3ccccc32)cc(OC)c1OC` [Compound 15l], for which the Solubility in data set [6] (setting [11]) is 91 µM (≈ 43.6 µg/mL).

In data set [6] (setting [11]), `COc1cc(/C=C/C(=O)NCCn2c(CNC3CCN(C)CC3)cc3ccccc32)cc(OC)c1OC` [Compound 15m] returned a Solubility of 180 µM (≈ 91.2 µg/mL).

Take `Cc1[nH]c2ccccc2c1CCNC(=O)/C=C/c1ccc(OCCO)cc1` [Compound 16d]: in data set [6] (PBS buffer, pH 7.4, aqueous buffer, kinetic from dmso stock), the concentration in solution (Solubility) came to 68 µM (≈ 24.8 µg/mL). The Kb in data set [2] (Table 3, Schild KB from single concentration 1 μM, read-out: EP2 KB) is 13.6 nM; in data set [2] (Table 4, read-out: KB EP2) it was 13.6 nM; in data set [2] (setting [9]), 11.4 to 13.6 nM. Besides, the CC50 in data set [7] was found to be 81.7 µM.

Consider `Cc1cc2ccccc2n1CCNC(=O)/C=C/c1ccc(OCCCO)cc1` [Compound 16e], for which the Solubility in data set [6] (setting [11]) was determined as 66 µM (≈ 25 µg/mL).
